Where “and” joins values, the source holds several entries; their conditions need not be identical. Equal entries are not always repeated. Calls of active or inactive are those of the source. How the source made its calls: active means viability on the fitted dose curve at most 10% of control; inactive means the rest.
Test system: NCI-H1618 multicellular tumor spheroid viability
Assay: Anticancer human tumor NCI-H1618 cell line growth inhibition;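 further: spheroids exposed to agents for 7 days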
Details: for viability, T/C: stronger effect = lower value
Procedure, shortened: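 Complex tumor spheroids combined malignant cells with endothelial cells and mesenchymal stem cells. DNA-damaging drugs and DNA repair inhibitors were tested alone and in combination, at half-log dilutions down from clinical Cmax (top 10 microM if Cmax unknown), 0.25% DMSO final.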

[1] = curve of first compound, second compound 0.003 µM
[2] = curve of first compound, second compound 0.00949 µM
[3] = curve of first compound, second compound 0.03 µM
[4] = curve of first compound, second compound 0.0949 µM
[5] = curve of first compound, second compound 0.3 µM

CC(C)n1c(=O)n(C)c2cnc3cc(F)c(-c4ccc(OCCCN5CCCCC5)nc4)cc3c21 + Cn1nnc2c(C(N)=O)ncn2c1=O
4440 nM: IC50 (curve of first compound, second compound 100 µM)
inactive: viability, T/C (second compound 1 µM, first compound 0.0316 µM) 82.9% | outcome (second compound 1 µM, first compound 0.1 µM) | outcome (second compound 1 µM, first compound 0.316 µM) | viability, T/C (second compound 1 µM, first compound 1 µM) 86.7% | viability, T/C (second compound 1 µM, first compound 3.16 µM) 78.4% | viability, T/C (second compound 1 µM, first compound 10 µM) 69% | viability, T/C (second compound 3.16 µM, first compound 0.0316 µM) 20.5% | viability, T/C (second compound 3.16 µM, first compound 0.1 µM) 16.2% | viability, T/C (second compound 3.16 µM, first compound 0.316 µM) 25.4% | viability, T/C (second compound 3.16 µM, first compound 1 µM) 22.2% | viability, T/C (second compound 3.16 µM, first compound 3.16 µM) 8.21% | viability, T/C (second compound 3.16 µM, first compound 10 µM) 14.4% | viability, T/C (second compound 10 µM, first compound 0.0316 µM) 12.6% | viability, T/C (second compound 31.6 µM, first compound 0.0316 µM) 9.31% | viability, T/C (second compound 31.6 µM, first compound 0.1 µM) 17.1% | viability, T/C (second compound 31.6 µM, first compound 0.316 µM) 12.9% | viability, T/C (second compound 31.6 µM, first compound 1 µM) 11.6% | viability, T/C (second compound 31.6 µM, first compound 3.16 µM) 23% | viability, T/C (second compound 31.6 µM, first compound 10 µM) 6.81% | viability, T/C (second compound 100 µM, first compound 0.0316 µM) 57.3% | viability, T/C (second compound 100 µM, first compound 0.1 µM) 68.8% | viability, T/C (second compound 100 µM, first compound 0.316 µM) 52% | viability, T/C (second compound 100 µM, first compound 1 µM) 67.2% | viability, T/C (second compound 100 µM, first compound 3.16 µM) 57.6% | viability, T/C (second compound 100 µM, first compound 10 µM) 29.9%
active: viability, T/C (second compound 10 µM, first compound 0.1 µM) 2.97% | viability, T/C (second compound 10 µM, first compound 0.316 µM) 8.79% | viability, T/C (second compound 10 µM, first compound 1 µM) 11.4% | viability, T/C (second compound 10 µM, first compound 3.16 µM) 19.9% | viability, T/C (second compound 10 µM, first compound 10 µM) 5.34%
> 10000 nM: IC50 (curve of first compound, second compound 1 µM)
< 31.6 nM: IC50 (curve of first compound, second compound 3.16 µM) | IC50 (curve of first compound, second compound 10 µM) | IC50 (curve of first compound, second compound 31.6 µM)

O=C(c1cc(Cc2n[nH]c(=O)c3ccccc23)ccc1F)N1CCN(C(=O)C2CC2)CC1 + CC[C@@]1(O)C(=O)OCc2c1cc1n(c2=O)Cc2cc3c(CN(C)C)c(O)ccc3nc2-1
< 94.9 nM: IC50 [2] | IC50 [3] | IC50 [4] | IC50 [5]
inactive: viability, T/C (second compound 0.003 µM, first compound 0.0949 µM) 89% | viability, T/C (second compound 0.003 µM, first compound 0.3 µM) 84% | viability, T/C (second compound 0.003 µM, first compound 0.949 µM) 61.2% | viability, T/C (second compound 0.003 µM, first compound 3 µM) 15% | viability, T/C (second compound 0.0949 µM, first compound 0.0949 µM) 13.1%
active: viability, T/C (second compound 0.003 µM, first compound 9.49 µM) 3.53% | viability, T/C (second compound 0.003 µM, first compound 30 µM) 3.79% | viability, T/C (second compound 0.00949 µM, first compound 0.0949 µM) 2.05% | viability, T/C (second compound 0.00949 µM, first compound 0.3 µM) 2.74% | viability, T/C (second compound 0.00949 µM, first compound 0.949 µM) 1.49% | viability, T/C (second compound 0.00949 µM, first compound 3 µM) 2.37% | viability, T/C (second compound 0.00949 µM, first compound 9.49 µM) 9.35% | viability, T/C (second compound 0.00949 µM, first compound 30 µM) 2.81% | viability, T/C (second compound 0.03 µM, first compound 0.0949 µM) 2.9% | viability, T/C (second compound 0.03 µM, first compound 0.3 µM) 1.36% | viability, T/C (second compound 0.03 µM, first compound 0.949 µM) 1.85% | viability, T/C (second compound 0.03 µM, first compound 3 µM) 1.67% | viability, T/C (second compound 0.03 µM, first compound 9.49 µM) 2.73% | viability, T/C (second compound 0.03 µM, first compound 30 µM) 2.96% | viability, T/C (second compound 0.0949 µM, first compound 0.3 µM) 1.67% | viability, T/C (second compound 0.0949 µM, first compound 0.949 µM) 2.53% | viability, T/C (second compound 0.0949 µM, first compound 3 µM) 1.83% | viability, T/C (second compound 0.0949 µM, first compound 9.49 µM) 2.3% | viability, T/C (second compound 0.0949 µM, first compound 30 µM) 2.69% | viability, T/C (second compound 0.3 µM, first compound 0.0949 µM) 1.51% | viability, T/C (second compound 0.3 µM, first compound 0.3 µM) 1.22% | viability, T/C (second compound 0.3 µM, first compound 0.949 µM) 1.9% | viability, T/C (second compound 0.3 µM, first compound 3 µM) 1.37% | viability, T/C (second compound 0.3 µM, first compound 9.49 µM) 1.77% | viability, T/C (second compound 0.3 µM, first compound 30 µM) 3.42%
1250 nM: IC50 [1]

Cc1cc(C)c(CNC(=O)c2cc(-c3ccc(CN4CCOCC4)cc3)cc3c2cnn3C2CCCC2)c(=O)[nH]1
inactive: viability, T/C (compound 0.0316 µM) 90.5% and 97.2% and 101% | viability, T/C (compound 0.1 µM) 103% and 101% and 107% | viability, T/C (compound 0.316 µM) 89.7% and 98.2% and 101% | viability, T/C (compound 1 µM) 94.6% and 94.8% and 99% | viability, T/C (compound 3.16 µM) 89% and 95.3% and 95.9% | viability, T/C (compound 10 µM) 76.2% and 95.1% and 88.9%
> 10000 nM: IC50 (curve of compound)

COc1cc(C)[nH]c(=O)c1CN1CCc2c(Cl)cc(C(OC)C3COC3)c(Cl)c2C1=O (configuration not stated) + CC[C@@]1(O)C(=O)OCc2c1cc1n(c2=O)Cc2cc3c(CN(C)C)c(O)ccc3nc2-1
< 31.6 nM: IC50 [2] | IC50 [3] | IC50 [4] | IC50 [5]
active: viability, T/C (second compound 0.03 µM, first compound 0.0316 µM) 6.67% | viability, T/C (second compound 0.03 µM, first compound 0.1 µM) 5.82% | viability, T/C (second compound 0.03 µM, first compound 0.316 µM) 8.79% | viability, T/C (second compound 0.03 µM, first compound 1 µM) 4.86% | viability, T/C (second compound 0.03 µM, first compound 3.16 µM) 5.97% | viability, T/C (second compound 0.03 µM, first compound 10 µM) 7.23% | viability, T/C (second compound 0.0949 µM, first compound 0.0316 µM) 6.1% | viability, T/C (second compound 0.0949 µM, first compound 0.1 µM) 2.42% | viability, T/C (second compound 0.0949 µM, first compound 0.316 µM) 2.48% | viability, T/C (second compound 0.0949 µM, first compound 1 µM) 6.01% | viability, T/C (second compound 0.0949 µM, first compound 3.16 µM) 4.18% | viability, T/C (second compound 0.0949 µM, first compound 10 µM) 6.78% | viability, T/C (second compound 0.3 µM, first compound 0.0316 µM) 2.05% | viability, T/C (second compound 0.3 µM, first compound 0.1 µM) 2.31% | viability, T/C (second compound 0.3 µM, first compound 0.316 µM) 2% | viability, T/C (second compound 0.3 µM, first compound 1 µM) 1.4% | viability, T/C (second compound 0.3 µM, first compound 3.16 µM) 3.18% | viability, T/C (second compound 0.3 µM, first compound 10 µM) 2.92%
> 10000 nM: IC50 [1]
inactive: viability, T/C (second compound 0.003 µM, first compound 0.0316 µM) 54.1% | viability, T/C (second compound 0.003 µM, first compound 0.1 µM) 52.3% | viability, T/C (second compound 0.003 µM, first compound 0.316 µM) 78.8% | viability, T/C (second compound 0.003 µM, first compound 1 µM) 63.3% | viability, T/C (second compound 0.003 µM, first compound 3.16 µM) 83.5% | viability, T/C (second compound 0.003 µM, first compound 10 µM) 53.2% | viability, T/C (second compound 0.00949 µM, first compound 0.0316 µM) 39.5% | viability, T/C (second compound 0.00949 µM, first compound 0.1 µM) 10.9% | viability, T/C (second compound 0.00949 µM, first compound 0.316 µM) 17.2% | viability, T/C (second compound 0.00949 µM, first compound 1 µM) 40.1% | viability, T/C (second compound 0.00949 µM, first compound 3.16 µM) 38.8% | viability, T/C (second compound 0.00949 µM, first compound 10 µM) 29.1%
